Five compounds from US20250367173A1, “ECTONUCLEOTIDE PYROPHOSPHATASE-PHOSPHODIESTERASE-1 INHIBITORS AND PHARMACEUTICAL COMPOSITIONS COMPRISING THE SAME” (LigaChem Biosciences Inc., priority 2022, published 2025) can be followed below.

A value given as a limit tells only on which side of the number the result lay.

For assay [1], the target named is T1, ENPP-1 (Homo sapiens, UniProt P22413).
T1 construct: purchased Biovendor RD172124100
T1 sequence (P22413 1-925): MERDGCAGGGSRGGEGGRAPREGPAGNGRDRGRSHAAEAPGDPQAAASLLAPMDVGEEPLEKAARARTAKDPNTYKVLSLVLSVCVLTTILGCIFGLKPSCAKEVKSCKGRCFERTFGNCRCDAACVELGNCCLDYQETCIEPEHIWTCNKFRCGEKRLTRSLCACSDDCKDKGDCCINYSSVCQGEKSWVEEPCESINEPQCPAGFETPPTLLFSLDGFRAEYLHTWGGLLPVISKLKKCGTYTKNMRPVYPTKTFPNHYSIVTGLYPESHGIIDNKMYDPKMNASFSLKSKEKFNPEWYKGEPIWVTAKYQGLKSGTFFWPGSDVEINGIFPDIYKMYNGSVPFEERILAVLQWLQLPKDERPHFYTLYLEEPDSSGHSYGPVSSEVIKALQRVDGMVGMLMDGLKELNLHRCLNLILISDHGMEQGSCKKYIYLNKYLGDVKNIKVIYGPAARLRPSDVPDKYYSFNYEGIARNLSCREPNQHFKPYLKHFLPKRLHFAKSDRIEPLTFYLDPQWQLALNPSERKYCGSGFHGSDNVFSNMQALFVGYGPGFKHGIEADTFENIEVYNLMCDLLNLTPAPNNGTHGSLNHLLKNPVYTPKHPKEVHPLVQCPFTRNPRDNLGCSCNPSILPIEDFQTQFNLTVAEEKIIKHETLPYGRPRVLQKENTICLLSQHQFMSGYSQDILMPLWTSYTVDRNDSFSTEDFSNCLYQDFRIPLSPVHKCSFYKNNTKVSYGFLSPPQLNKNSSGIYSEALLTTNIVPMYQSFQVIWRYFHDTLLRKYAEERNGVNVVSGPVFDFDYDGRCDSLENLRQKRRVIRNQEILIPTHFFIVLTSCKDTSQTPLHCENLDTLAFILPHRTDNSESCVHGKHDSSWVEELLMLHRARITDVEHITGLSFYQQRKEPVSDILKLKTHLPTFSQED
Nature of the assay: ENPP-1 enzyme assay with cGAMP substrate. It counts as biochemical. Conditions: 200 pM ENPP-1, 10 μM substrate 2′3′-cGAMP, pH 7.4, 37° C., 30 minutes, Transcreener AMP2/GMP2 kit; average IC50.

The target of assay [2] is T1, ENPP-1. Nature of the assay: ENPP-1 enzyme assay with pNP-TMP substrate. It counts as biochemical. Particulars: 12.5 ng ENPP-1, 720 μM substrate pNP-TMP, pH 9.0, 37° C., 60 minutes, absorbance 405 nm; average IC50.

`COc1ccc2c3cnncc3n(Cc3ccc(S(N)(=O)=O)cc3)c2c1` [Compound 47, 4-((7-methoxy-5H-pyridazino[4,5-b]indol-5-yl)methyl)benzenesulfonamide]: the IC50 – broadly, the concentration that inhibits the measured activity by half – was 1000 to 10000 nM against ENPP-1 [1] and < 1000 nM on ENPP-1 [2].

Regarding `COc1ccc2c(c1)c1ncccc1n2Cc1ccc(S(=N)(=O)Cc2ccccc2)cc1` (stereo not shown) [Compound 12, benzyl(imino)(4-((8-methoxy-5H-pyrido[3,2-b]indol-5-yl)methyl)phenyl)-l6-sulfanone], the concentration for half-maximal inhibition (IC50) against ENPP-1 [1] and against ENPP-1 [2] was < 1000 nM in each case.

In the case of `COc1ccc2c(c1)c1ncccc1n2Cc1ccc(S(C)(=N)=O)cc1C` (stereo not shown) [Compound 18, imino (4-((8-methoxy-5H-pyrido[3,2-b]indol-5-yl)methyl)-3-methylphenyl)(methyl)-l6-sulfanone], the 50% inhibitory concentration (IC50) on ENPP-1 [1] and at ENPP-1 [2] was < 1000 nM in each case.

For the compound `COc1cc2c3ncccc3n(Cc3ccc(P(=O)(O)O)cc3)c2cc1F` [Compound 57, (4-((7-fluoro-8-methoxy-5H-pyrido[3,2-b]indol-5-yl)methyl)phenyl)phosphonic acid], the IC50 at ENPP-1 [1] and at ENPP-1 [2] was < 1000 nM throughout.

With `COc1ccc2c3c(=O)[nH]ncc3n(Cc3ccc(S(C)(=N)=O)cc3)c2c1` (stereo not shown) [Compound 46, 7-methoxy-5-(4-(S-methylsulfonimidoyl)benzyl)-2,5-dihydro-1H-pyridazino[4,5-b]indol-1-one], the IC50 against ENPP-1 [1] and on ENPP-1 [2] was < 1000 nM throughout.
